Legend:
[1] = alamarBlue cytotoxicity (CC50), GT1b replicon cell line; conditions: human
Method: The anti-HCV activity of STG-175 was conducted using a panel of luciferase reporter replicon cell lines including GT1a, GT1b, GT2a, GT3a and GT4a as we described previously. The GT1a subgenomic renilla luciferase reporter replicon H77 RLucP (7) was supplied by Dr. Delaney. The GT1b subgenomic firefly luciferase reporter replicon pFK-I389/NS3-3’ [29] was supplied by Dr. Bartenschlager. The GT1B subgenomic NS3, NS5A and NS5B mutants were created via homologous recombination using the In-Fusion HD Cloning kit (Clontech) as we described previously. The GT2a genomic luciferase reporter replicon Luc-Neo-JFH-1 was generated as previously. The plasmid pFK-Luc-JFH1 was supplied from Drs. […] The CellTiter-Fluor™ Cell Viability Assay is a non-lytic fluorescence assay, which measures the number of live cells. […] Luciferase activity was determined using the Luciferase Assay System (Promega) in a Berthold luminometer. […] Viable cells continuously convert resazurin to resorufin, increasing the overall fluorescence and color of the media surrounding cells.
Fig 2 Anti-HCV activities of STG-175 among GTs. […] Luciferase activity was determined using the Luciferase Assay System in a Berthold luminometer. […] Data are expressed as mean of relative light units and calculated EC50s are presented. […]

[2] = test system: NS5Bi-resistant S282T NS5B Con1 GT1b replicon; assay: Electroporated Con1 RNA replication in Huh7.5.1 cells (RT-qPCR), S282T NS5B; assay type: cell-based; conditions: Hepatitis C virus, Huh-7.5.1, 192 h, read-out: EC50 S282T NS5B
Excerpt: The GT1b subgenomic firefly luciferase reporter replicon pFK-I389/NS3–3 was provided by R. Bartenschlager. The GT1B subgenomic NS3, NS5A and NS5B mutants were created via homologous recombination using the In-Fusion HD Cloning kit (Clontech) as we described previously. […] The in vitro transcription of wild-type and mutant Con1 RNA was accomplished using the T7 MEGAscript kit (Ambion) by following the manufacturer’s instructions. In vitro-transcribed RNAs were introduced into Huh7.5.1 cells by electroporation. Trypsinized cells were washed twice and resuspended in phosphate-buffered saline (PBS) (calcium-free and magnesium-free) at 1x 10^7 cells per ml. Ten micrograms of RNA for each mutant was mixed with 0.4 mL of cells in a 4-mm cuvette, and a Bio-Rad Gene Pulser system was used to deliver a single pulse at 0.27 kV, 100 ohms, and 960 μF. […] RNA transfection efficiency and HCV subgenomic replication were assessed by reverse transcription-quantitative PCR (RT-qPCR) and presented as genome equivalents (GE) per microgram of total RNA as described previously. We measured by RT-qPCR the replication of wild-type, STG-175-, NS5Ai-, NS3i- and NS5Bi-resistant mutants in the presence of increasing concentrations of SGT-175, daclatasvir, telaprevir, boceprevir and sofosbuvir over a period of 8 days.
Fig 5 Cross-resistance analyses. […] Data are expressed as log of GE/μg of total RNA. […]

[3] = test system: HCV GT1a, GT1b, GT2a, GT3a and GT4a replicons; assay: Panel of HCV replicon cell lines GT1a to 4a (summary statements); assay type: cell-based; conditions: Hepatitis C virus, read-out: EC50 range among HCV GTs (GT1a to 4a), multi-genotypic anti-HCV activity

Question: For CC=CCC(C)C(O)C1C(=O)NC(CC)C(=O)N(C)C(CSCCCCO)C(=O)N(C)C(CC(C)(C)O)C(=O)NC(C(C)C)C(=O)N(C)C(CC(C)C)C(=O)NC(C)C(=O)NC(C)C(=O)N(C)C(CC(C)C)C(=O)N(C)C(CC(C)C)C(=O)N(C)C(C(C)C)C(=O)N1C (stereo not drawn) [STG-175], which CC50 at 72 h [1] is on record?
Answer: The CC50 at 72 h was greater than 10 µM.

Question: What about the EC50 [2] of the same compound?
Answer: Its EC50 is 0.00541 µM.

Question: What about the EC50 [3] of the same compound?
Answer: Its EC50 is 0.0115 to 0.0389 µM.
